Experimental findings from publication PMC4079752 (Clinical cancer research : an official journal of the …, 2014) are described below.

What is called IC50 is the concentration at which inhibition is half-maximal. Low values mean higher potency, high ones lower potency.

The target of the test is bacterial β-glucuronidase (E. coli GUS) (Escherichia coli, UniProt P05804). Put plainly: GUS enzyme activity assay with purified enzyme. It counts as biochemical.
Sequence of bacterial β-glucuronidase (E. coli GUS) (P05804 whole entry): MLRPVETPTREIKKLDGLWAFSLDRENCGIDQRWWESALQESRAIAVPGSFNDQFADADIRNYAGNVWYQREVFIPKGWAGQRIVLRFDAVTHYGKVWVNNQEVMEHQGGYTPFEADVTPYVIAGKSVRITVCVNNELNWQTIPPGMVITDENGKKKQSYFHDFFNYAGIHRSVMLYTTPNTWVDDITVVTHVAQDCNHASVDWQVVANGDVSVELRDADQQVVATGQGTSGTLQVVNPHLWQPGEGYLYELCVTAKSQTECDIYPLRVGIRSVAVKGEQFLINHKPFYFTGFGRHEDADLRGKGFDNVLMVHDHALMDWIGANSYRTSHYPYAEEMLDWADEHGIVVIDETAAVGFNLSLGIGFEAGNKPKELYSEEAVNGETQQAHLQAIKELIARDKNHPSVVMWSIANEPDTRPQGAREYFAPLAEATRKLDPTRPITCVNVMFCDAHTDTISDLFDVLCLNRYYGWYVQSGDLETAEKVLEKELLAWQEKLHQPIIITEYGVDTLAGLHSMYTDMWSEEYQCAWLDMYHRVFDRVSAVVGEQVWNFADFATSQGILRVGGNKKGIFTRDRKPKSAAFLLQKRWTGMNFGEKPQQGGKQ

For the compound `Oc1ccc2c(c1)Oc1ccc(Cl)cc1C(N1CCNCC1)=N2` [7-OHAMOX, 7-hydroxyamoxapine], the half-maximal inhibitory concentration (IC50) is 981 ± 183 nM. Turning to `Oc1ccc2c(c1)N=C(N1CCNCC1)c1cc(Cl)ccc1O2` [8-OHAMOX, 8-hydroxyamoxapine], the IC50 was 1990 nM.
